Square brackets hold non-standard residues; d marks the D form. Peptide text beside a SMILES is read from it. NMeV = CN[C@H](C(=O)O)C(C)C; N(iPr)Gly = CC(C)NCC(=O)O; NMeA = CN[C@@H](C)C(=O)O
Columns and labels:
[1] = test system: UMR106-06; experiment: Compound was evaluated for the intrinsic activity for accumulation of cyclic AMP in UMR10606 (rat osteosarcoma) cells.; assay type: functional
[2] = test system: OK-1; experiment: Accumulation of cyclic AMP in OK-1 cells.; assay type: functional, cell-based, opossum; settings: opossum, OK-1
[3] = test system: OK-1; experiment: Displacement of [125I]-chick PTHrP-(1-36)-NH2 from opossum (OK-1) kidney cells; assay type: functional
[4] = test system: UMR106-06; experiment: Compound was evaluated for the accumulation of cyclic AMP in UMR10606 (rat osteosarcoma) cells.; assay type: functional, cell-based; settings: Rattus norvegicus, UMR106-06
[5] = test system: OK-1; experiment: Compound was evaluated for the intrinsic activity for accumulation of cyclic AMP in OK-1 cells.; assay type: functional, opossum

Compound	Intrinsic activity [1]	EC50 [2]	pKD [3]	EC50 [4]	Intrinsic activity [5]
CC[C@H](C)[C@H](NC(=O)[C@H](CCC(=O)O)NC(=O)[C@H](CO)NC(=O)CN(C(=O)[C@H](C)N)C(C)C)C(=O)N[C@@H](CCC(N)=O)C(=O)N[C@@H](CC(C)C)C(=O)N[C@@H](CCSC)C(=O)N[C@@H](Cc1c[nH]cn1)C(=O)N[C@@H](CC(N)=O)C(=O)N[C@@H](CC(C)C)C(=O)NCC(=O)N[C@@H](CCCCN)C(=O)N[C@@H](Cc1c[nH]cn1)C(=O)N[C@@H](CC(C)C)C(=O)N[C@@H](CC(N)=O)C(=O)N[C@@H](CO)C(=O)N[C@@H](CCSC)C(=O)N[C@@H](CCC(=O)O)C(=O)N[C@@H](CCCN=C(N)N)C(=O)N[C@H](C(=O)N[C@@H](CCC(=O)O)C(=O)N[C@@H](Cc1c[nH]c2ccccc12)C(=O)N[C@@H](CC(C)C)C(=O)N[C@@H](CCCN=C(N)N)C(=O)N[C@@H](CCCCN)C(=O)N[C@@H](CCCCN)C(=O)N[C@@H](CC(C)C)C(=O)N[C@@H](CCC(N)=O)C(=O)N[C@@H](CC(=O)O)C(=O)N[C@H](C(=O)N[C@@H](Cc1c[nH]cn1)C(=O)N[C@@H](CC(N)=O)C(=O)N[C@@H](Cc1ccccc1)C(=O)N[C@H](C(=O)N[C@@H](C)C(N)=O)C(C)C)C(C)C)C(C)C (H-A[N(iPr)Gly]SEIQLMHNLGKHLNSMERVEWLRKKLQDVHNFVA-NH2)	0.05	97.2 nM	7.4	30 nM	0.5
CC[C@H](C)[C@H](NC(=O)[C@H](CCC(=O)O)NC(=O)[C@H](CO)NC(=O)[C@H](C(C)C)N(C)C(=O)[C@H](C)N)C(=O)N[C@@H](CCC(N)=O)C(=O)N[C@@H](CC(C)C)C(=O)N[C@@H](CCSC)C(=O)N[C@@H](Cc1c[nH]cn1)C(=O)N[C@@H](CC(N)=O)C(=O)N[C@@H](CC(C)C)C(=O)NCC(=O)N[C@@H](CCCCN)C(=O)N[C@@H](Cc1c[nH]cn1)C(=O)N[C@@H](CC(C)C)C(=O)N[C@@H](CC(N)=O)C(=O)N[C@@H](CO)C(=O)N[C@@H](CCSC)C(=O)N[C@@H](CCC(=O)O)C(=O)N[C@@H](CCCN=C(N)N)C(=O)N[C@H](C(=O)N[C@@H](CCC(=O)O)C(=O)N[C@@H](Cc1c[nH]c2ccccc12)C(=O)N[C@@H](CC(C)C)C(=O)N[C@@H](CCCN=C(N)N)C(=O)N[C@@H](CCCCN)C(=O)N[C@@H](CCCCN)C(=O)N[C@@H](CC(C)C)C(=O)N[C@@H](CCC(N)=O)C(=O)N[C@@H](CC(=O)O)C(=O)N[C@H](C(=O)N[C@@H](Cc1c[nH]cn1)C(=O)N[C@@H](CC(N)=O)C(=O)N[C@@H](Cc1ccccc1)C(=O)N[C@H](C(=O)N[C@@H](C)C(N)=O)C(C)C)C(C)C)C(C)C (H-A[NMeV]SEIQLMHNLGKHLNSMERVEWLRKKLQDVHNFVA-NH2)	0.9	3.5 nM	8.4	4.4 nM	1
CC[C@H](C)[C@H](NC(=O)[C@H](CCC(=O)O)NC(=O)[C@H](CO)NC(=O)[C@H](C(C)C)N(C)C(=O)[C@H](C)NC)C(=O)N[C@@H](CCC(N)=O)C(=O)N[C@@H](CC(C)C)C(=O)N[C@@H](CCSC)C(=O)N[C@@H](Cc1c[nH]cn1)C(=O)N[C@@H](CC(N)=O)C(=O)N[C@@H](CC(C)C)C(=O)NCC(=O)N[C@@H](CCCCN)C(=O)N[C@@H](Cc1c[nH]cn1)C(=O)N[C@@H](CC(C)C)C(=O)N[C@@H](CC(N)=O)C(=O)N[C@@H](CO)C(=O)N[C@@H](CCSC)C(=O)N[C@@H](CCC(=O)O)C(=O)N[C@@H](CCCN=C(N)N)C(=O)N[C@H](C(=O)N[C@@H](CCC(=O)O)C(=O)N[C@@H](Cc1c[nH]c2ccccc12)C(=O)N[C@@H](CC(C)C)C(=O)N[C@@H](CCCN=C(N)N)C(=O)N[C@@H](CCCCN)C(=O)N[C@@H](CCCCN)C(=O)N[C@@H](CC(C)C)C(=O)N[C@@H](CCC(N)=O)C(=O)N[C@@H](CC(=O)O)C(=O)N[C@H](C(=O)N[C@@H](Cc1c[nH]cn1)C(=O)N[C@@H](CC(N)=O)C(=O)N[C@@H](Cc1ccccc1)C(=O)N[C@H](C(=O)N[C@@H](C)C(N)=O)C(C)C)C(C)C)C(C)C (H-[NMeA][NMeV]SEIQLMHNLGKHLNSMERVEWLRKKLQDVHNFVA-NH2)	1	6.5 nM	8.5	4.9 nM	1
